Calls of active or inactive are those of the source. The rule behind the calls is not given here.
Columns and labels:
[1] = tested on: RAW264.7; assay: Neuroprotective activity against LPS-induced oxidative stress in mouse RAW264.7 cells assessed as reduction in NO production at 10 uM preincubated for 30 mins followed by LPS stimulation for 20 hrs by Griess reagent based microplate reader assay relative to control; format: functional
[2] = tested on: SH-SY5Y; assay: Neuroprotective activity against H2O2-induced oxidative stress in human SH-SY5Y cells assessed as cell viability at 10 uM preincubated for 2 hrs followed by H2O2 stimulation for 30 mins followed by further incubation for 24 hrs by MTT assay relative to control; format: functional; settings: for viability at 10 µM: read-out: Activity
[3] = tested on: SH-SY5Y; assay: Neuroprotective activity against oxygen-glucose deprivation-induced cell damage in human SH-SY5Y cells assessed as increase in cell viability measured after 5.5 hrs of post OGD challenge by MTT assay; format: functional, cell-based
[4] = tested on: SH-SY5Y; assay: Neuroprotective activity against H2O2-induced oxidative stress in human SH-SY5Y cells assessed as cell viability at 1 mM preincubated for 2 hrs followed by H2O2 stimulation for 30 mins followed by further incubation for 24 hrs by MTT assay relative to control; format: functional; settings: read-out: Activity

SMILES	inhibition at 10 µM [1] [%]	viability at 10 µM [2] [%]	other results
Cc1ccc(CNC(=O)O[C@H]2CC[C@@]3(C)[C@H](CC[C@@H]4[C@@H]3CC[C@]3(C)[C@@H]5[C@H](C[C@@H]43)O[C@]3(CC[C@@H](C)CO3)[C@H]5C)C2)cc1	6.8	29.2	
C[C@@H]1CC[C@@]2(OC1)O[C@H]1C[C@H]3[C@@H]4CC[C@@H]5C[C@@H](OC(=O)N6CCN(Cc7ccc(Cl)cc7)CC6)CC[C@]5(C)[C@H]4CC[C@]3(C)[C@H]1[C@@H]2C	15.2	34.8	Activity [3]: Active
C[C@@H]1CC[C@@]2(OC1)O[C@H]1C[C@H]3[C@@H]4CC[C@@H]5C[C@@H](OC(=O)NCc6ccccc6)CC[C@]5(C)[C@H]4CC[C@]3(C)[C@H]1[C@@H]2C		5.8	
CC(C)CNC(=O)O[C@H]1CC[C@@]2(C)[C@H](CC[C@@H]3[C@@H]2CC[C@]2(C)[C@@H]4[C@H](C[C@@H]32)O[C@]2(CC[C@@H](C)CO2)[C@H]4C)C1		9.2	
C[C@@H]1CC[C@@]2(OC1)O[C@H]1C[C@H]3[C@@H]4CC[C@@H]5C[C@@H](OC(=O)N6CCN(C)CC6)CC[C@]5(C)[C@H]4CC[C@]3(C)[C@H]1[C@@H]2C			Activity [2]: inactive
C[C@@H]1CC[C@@]2(OC1)O[C@H]1C[C@H]3[C@@H]4CC[C@@H]5C[C@@H](OC(=O)N6CCN(Cc7ccccc7)CC6)CC[C@]5(C)[C@H]4CC[C@]3(C)[C@H]1[C@@H]2C	18.3	36.9	Activity [3]: Active
C[C@@H]1CC[C@@]2(OC1)O[C@H]1C[C@H]3[C@@H]4CC[C@@H]5C[C@@H](OC(=O)N(C)C)CC[C@]5(C)[C@H]4CC[C@]3(C)[C@H]1[C@@H]2C		6.3	
C[C@@H]1CC[C@@]2(OC1)O[C@H]1C[C@H]3[C@@H]4CC[C@@H]5C[C@@H](OC(=O)N6CCN(CCO)CC6)CC[C@]5(C)[C@H]4CC[C@]3(C)[C@H]1[C@@H]2C			Activity [2]: inactive
COc1cc(CN2CCN(C(=O)O[C@H]3CC[C@@]4(C)[C@H](CC[C@@H]5[C@@H]4CC[C@]4(C)[C@@H]6[C@H](C[C@@H]54)O[C@]4(CC[C@@H](C)CO4)[C@H]6C)C3)CC2)ccc1O		10.3	
C[C@@H]1CC[C@@]2(OC1)O[C@H]1C[C@H]3[C@@H]4CC[C@@H]5C[C@@H](O)CC[C@]5(C)[C@H]4CC[C@]3(C)[C@H]1[C@@H]2C		3.5	
C[C@@H]1CC[C@@]2(OC1)O[C@H]1C[C@H]3[C@@H]4CC[C@@H]5C[C@@H](OC(=O)N6CCN(Cc7ccccc7O)CC6)CC[C@]5(C)[C@H]4CC[C@]3(C)[C@H]1[C@@H]2C	7.02	38.4	
C[C@@H]1CC[C@@]2(OC1)O[C@H]1C[C@H]3[C@@H]4CC[C@@H]5C[C@@H](OC(=O)NCc6ccc(Cl)cc6)CC[C@]5(C)[C@H]4CC[C@]3(C)[C@H]1[C@@H]2C	17.6	45.5	Activity [3]: Active
COc1ccc(CN2CCN(C(=O)O[C@H]3CC[C@@]4(C)[C@H](CC[C@@H]5[C@@H]4CC[C@]4(C)[C@@H]6[C@H](C[C@@H]54)O[C@]4(CC[C@@H](C)CO4)[C@H]6C)C3)CC2)cc1		4.8	
CC(=O)N[C@@H](CS)C(=O)O [ACETYLCYSTEINE]			viability at 1000 µM [4]: 37.1%
C[C@@H]1CC[C@@]2(OC1)O[C@H]1C[C@H]3[C@@H]4CC[C@@H]5C[C@@H](OC(=O)N6CCN(Cc7ccc(C#N)cc7)CC6)CC[C@]5(C)[C@H]4CC[C@]3(C)[C@H]1[C@@H]2C	23.5	40.5	Activity [3]: Active
COc1ccc(CNC(=O)O[C@H]2CC[C@@]3(C)[C@H](CC[C@@H]4[C@@H]3CC[C@]3(C)[C@@H]5[C@H](C[C@@H]43)O[C@]3(CC[C@@H](C)CO3)[C@H]5C)C2)cc1	9.2	17.9	
